Assays:
[1] = biological target: T1, recombinant human ALK5 (TGF-βR1) protein (Homo sapiens, UniProt P36897); assay: Biochemical ALK5 (TGF-βR1) assay to measure pKi (LANCE Ultra ULight kinase assay); details: apparent pKi from pIC50 by Cheng-Prusoff, read-out: ALK5 pKi (converted)
T1 construct: purchased Life Technologies PR9075A
T1 sequence (P36897 34-503): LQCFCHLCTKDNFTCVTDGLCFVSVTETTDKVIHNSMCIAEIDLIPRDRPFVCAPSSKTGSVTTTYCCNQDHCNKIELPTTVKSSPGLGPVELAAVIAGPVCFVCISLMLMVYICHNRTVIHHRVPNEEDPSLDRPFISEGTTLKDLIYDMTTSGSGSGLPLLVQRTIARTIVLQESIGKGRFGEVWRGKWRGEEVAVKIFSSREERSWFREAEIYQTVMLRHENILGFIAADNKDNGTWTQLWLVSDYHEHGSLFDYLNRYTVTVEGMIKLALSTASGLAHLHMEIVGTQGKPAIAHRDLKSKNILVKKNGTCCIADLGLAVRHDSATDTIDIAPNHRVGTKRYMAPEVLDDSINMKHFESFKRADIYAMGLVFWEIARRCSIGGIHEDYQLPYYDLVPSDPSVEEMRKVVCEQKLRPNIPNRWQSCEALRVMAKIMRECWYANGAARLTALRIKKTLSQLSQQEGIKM
In short: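 Compounds (10 μM to 25 pM) were preincubated 60 min at room temperature with enzyme, then reactions were started with ATP (125 μM stock, 5× final) and run 60 min at 37 °C. EDTA-containing Eu-anti-phospho-Topo IIα (Thr1342) antibody stopped the reaction; TR-FRET read at 665 nm. pIC50 from 4-parameter fit, converted to pKi via Cheng-Prusoff.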

[2] = tested on: TGF-β-stimulated SMAD3 phosphorylation in BEAS-2B cells; assay: Cellular ALK5 potency assay, inhibition of TGF-β stimulated pSMAD3 formation in BEAS-2B cells; type: cell-based; details: Homo sapiens; inhibition of TGF-β stimulated pSMAD3 formation, BEAS-2B cells; read-out: BEAS2B pIC50 (converted)
In short: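 SMAD3 phosphorylation was measured by AlphaLISA after 30 min TGF-β stimulation (10 ng/mL final) of BEAS-2B cells preincubated 1 h with compound at 37 °C. Results given as pIC50.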

Structure (SMILES) | Ki [1] [nM] | IC50 [2] [nM]
Cc1cccc(-c2n[nH]cc2-c2ccc3ncc(N4CCC(N(C)C)CC4)cc3n2)n1 [Compound 141, N,N-dimethyl-1-[6-[3-(6-methyl-2-pyridyl)-1H-pyrazol-4-yl]-1,5-naphthyridin-3-yl]piperidin-4-amine] | < 0.0316 | 25.1 to 158
Cc1cccc(-c2n[nH]cc2-c2ccc3nccc(N4CCC(N5CCN(C)CC5)CC4)c3n2)n1 [Compound 845, 8-[4-(4-methylpiperazin-1-yl)-1-piperidyl]-2-[3-(6-methyl-2-pyridyl)-1H-pyrazol-4-yl]-1,5-naphthyridine] | 0.398 to 3.16 | 200 to 1260
Cc1cccc(-c2[nH]cnc2-c2ccc3ncc(N4CC5(CNC5)C4)cc3c2)n1 [Compound 131, 3-(2,6-diazaspiro[3.3]heptan-2-yl)-6-[5-(6-methyl-2-pyridyl)-1H-imidazol-4-yl]quinoline] | < 0.0316 | 25.1 to 158
Cc1cccc(-c2[nH]cnc2-c2ccc3ncc(C4=CCC(NC(C)C)CC4)cc3c2)n1 (stereo not drawn) [Compound 540, N-isopropyl-4-[6-[5-(6-methyl-2-pyridyl)-1H-imidazol-4-yl]-3-quinolyl]cyclohex-3-en-1-amine] | < 0.0316 | 25.1 to 158
Cc1cccc(-c2n[nH]cc2-c2ccc3ncc(N4CCC(O)C4)cc3n2)n1 (racemic) [Compound 312, rac-(3R)-1-[6-[3-(6-methyl-2-pyridyl)-1H-pyrazol-4-yl]-1,5-naphthyridin-3-yl]pyrrolidin-3-ol] | < 0.0316 | < 20
Cc1nc(-c2nc3ccccn3c2-c2ccc3ncc(N4CCNCC4)cc3c2)ccc1F [Compound 457, 6-[2-(5-fluoro-6-methyl-2-pyridyl)imidazo[1,2-a]pyridin-3-yl]-3-piperazin-1-yl-quinoline] | 0.0398 to 0.316 | 25.1 to 158
CNCCn1ccc(-c2cnc3ccc(-c4c[nH]nc4-c4ccc(F)c(C)n4)nc3c2)n1 [Compound 108, 2-[3-[6-[3-(5-fluoro-6-methyl-2-pyridyl)-1H-pyrazol-4-yl]-1,5-naphthyridin-3-yl]pyrazol-1-yl]-N-methyl-ethanamine] | 0.0398 to 0.316 | 25.1 to 158
Cc1cccc(-c2[nH]cnc2-c2ccc3ncc(C(=O)OC[C@H]4CCCCN4)cc3c2)n1 [Compound 884, (R)-piperidin-2-ylmethyl 6-(5-(6-methylpyridin-2-yl)-1H-imidazol-4-yl)quinoline-3-carboxylate] | 0.398 to 3.16 | 25.1 to 158
CNc1ccnc2ccc(-c3c[nH]nc3-c3cccc(C)n3)nc12 [Compound 838, N-methyl-6-[3-(6-methyl-2-pyridyl)-1H-pyrazol-4-yl]-1,5-naphthyridin-4-amine] | 0.398 to 3.16 | 25.1 to 158
Cc1cccc(-c2[nH]c(CNc3ccccc3F)nc2-c2ccc3ncc(N4CCC(N(C)C)C4)cc3c2)n1 (racemic) [Compound 652, rac-(3S)-1-[6-[2-[(2-fluoroanilino)methyl]-5-(6-methyl-2-pyridyl)-1H-imidazol-4-yl]-3-quinolyl]-N,N-dimethyl-pyrrolidin-3-amine] | 0.0398 to 0.316 | 200 to 1260
CNCCN1CCCN(c2cnc3ccc(-c4c[nH]nc4-c4cccc(C)n4)nc3c2)CC1 [Compound 311, N-methyl-2-[4-[6-[3-(6-methyl-2-pyridyl)-1H-pyrazol-4-yl]-1,5-naphthyridin-3-yl]-1,4-diazepan-1-yl]ethanamine] | 0.0398 to 0.316 | 200 to 1260
Cc1cccc(-c2n[nH]cc2-c2ccc3ncc(N4CCCNCC4)cc3n2)n1 [Compound 349, 7-(1,4-diazepan-1-yl)-2-[3-(6-methyl-2-pyridyl)-1H-pyrazol-4-yl]-1,5-naphthyridine] | 0.0398 to 0.316 | 25.1 to 158
Cc1cccc(-c2n[nH]cc2-c2ccc3ncc(-c4cnn(CCN5CCNCC5)c4)cc3n2)n1 [Compound 178, 2-[3-(6-methyl-2-pyridyl)-1H-pyrazol-4-yl]-7-[1-(2-piperazin-1-ylethyl)pyrazol-4-yl]-1,5-naphthyridine] | < 0.0316 | 25.1 to 158
Cc1cccc(-c2[nH]cnc2-c2ccc3ncc(C4=CCN(C)C4)cc3n2)n1 [Compound 309, 7-(1-methyl-2,5-dihydropyrrol-3-yl)-2-[5-(6-methyl-2-pyridyl)-1H-imidazol-4-yl]-1,5-naphthyridine] | < 0.0316 | 25.1 to 158
Cc1cccc(-c2[nH]ncc2-c2ccc3ncc(C(=O)OCCN4CCN5CCCC5C4)cc3c2)n1 (stereo not drawn) [Compound 1234, 2-(3,4,6,7,8,8a-hexahydro-1H-pyrrolo[1,2-a]pyrazin-2-yl)ethyl 6-[5-(6-methyl-2-pyridyl)-1H-pyrazol-4-yl]quinoline-3-carboxylate] | 0.0398 to 0.316 | 25.1 to 158
Cc1cccc(-c2[nH]cnc2-c2ccc3ncc(C4=CCC(N(C)C)CC4)cc3c2)n1 (stereo not drawn) [Compound 629, N,N-dimethyl-4-(6-(5-(6-methylpyridin-2-yl)-1H-imidazol-4-yl)quinolin-3-yl)cyclohex-3-en-1-amine] | < 0.0316 | 25.1 to 158

The next lines start with results.

Ki [1] [nM] | Structure (SMILES) | IC50 [2] [nM]
0.0398 to 0.316 | Cc1cccc(-c2[nH]cnc2-c2ccc3ncc(-c4ccc(C(=O)OC[C@H]5CCCNC5)cn4)cc3c2)n1 [Compound 1224, [(3S)-3-piperidyl]methyl 6-[6-[5-(6-methyl-2-pyridyl)-1H-imidazol-4-yl]-3-quinolyl]pyridine-3-carboxylate] | 25.1 to 158
0.0398 to 0.316 | Cc1cccc(-c2[nH]cnc2-c2ccc3ncc(C(=O)OCC4CCNCC4)cc3c2)n1 [Compound 741, 4-piperidylmethyl 6-[5-(6-methyl-2-pyridyl)-1H-imidazol-4-yl]quinoline-3-carboxylate] | 25.1 to 158
0.0398 to 0.316 | Cc1cccc(-c2[nH]cnc2-c2ccc3ncc(-c4cncc(C(=O)O[C@@H]5CCNC5)c4)cc3c2)n1 [Compound 725, [(3R)-pyrrolidin-3-yl] 5-[6-[5-(6-methyl-2-pyridyl)-1H-imidazol-4-yl]-3-quinolyl]pyridine-3-carboxylate] | 25.1 to 158
0.0398 to 0.316 | Cc1cccc(-c2[nH]cnc2-c2ccc3ncc(-c4ccc(C(=O)OCC5CNC5)nc4)cc3c2)n1 [Compound 54, azetidin-3-ylmethyl 5-[6-[5-(6-methyl-2-pyridyl)-1H-imidazol-4-yl]-3-quinolyl]pyridine-2-carboxylate] | 200 to 1260
0.0398 to 0.316 | Cc1cccc(-c2[nH]cnc2-c2ccc3ncc(-c4ccc(C(=O)O)cc4)cc3c2)n1 [Compound 145, 4-[6-[5-(6-methyl-2-pyridyl)-1H-imidazol-4-yl]-3-quinolyl]benzoic acid] | 200 to 1260
< 0.0316 | Cc1cccc(-c2[nH]cnc2-c2ccc3ncc(-c4ccc5c(c4)C(N)CC5)cc3c2)n1 (stereo not drawn) [Compound 726, 6-[6-[5-(6-methyl-2-pyridyl)-1H-imidazol-4-yl]-3-quinolyl]indan-1-amine] | 25.1 to 158
0.0398 to 0.316 | Cc1cccc(-c2[nH]cnc2-c2ccc3ncc(-c4cncc(C(=O)OC5CNC5)c4)cc3c2)n1 [Compound 577, azetidin-3-yl 5-[6-[5-(6-methyl-2-pyridyl)-1H-imidazol-4-yl]-3-quinolyl]pyridine-3-carboxylate] | 200 to 1260
0.0398 to 0.316 | Cc1cccc(-c2[nH]cnc2-c2ccc3ncc(NC4CCNC4)cc3c2)n1 (stereo not drawn) [Compound 184, 6-[5-(6-methyl-2-pyridyl)-1H-imidazol-4-yl]-N-pyrrolidin-3-yl-quinolin-3-amine] | 25.1 to 158

From patent US11590116B2 (THERAVANCE BIOPHARMA R&D IP, LLC, priority 2019, dated 2023)
